The nature of data set [1]: Retardation factor, Rf value of the compound using BuOH-AcOH-H20 at 4:1:1 ratio by ninhydrin. The data set is classed as physicochemical.
The nature of data set [2]: Inhibition of leucine aminopeptidase B (unknown origin) using 0.2 mM L-leucine-beta-naphthylamide. Also noted: species or system Homo sapiens.
The target in data set [3] is T1, Aminopeptidase B (Rattus norvegicus, UniProt O09175).
T1 sequence (O09175 whole entry): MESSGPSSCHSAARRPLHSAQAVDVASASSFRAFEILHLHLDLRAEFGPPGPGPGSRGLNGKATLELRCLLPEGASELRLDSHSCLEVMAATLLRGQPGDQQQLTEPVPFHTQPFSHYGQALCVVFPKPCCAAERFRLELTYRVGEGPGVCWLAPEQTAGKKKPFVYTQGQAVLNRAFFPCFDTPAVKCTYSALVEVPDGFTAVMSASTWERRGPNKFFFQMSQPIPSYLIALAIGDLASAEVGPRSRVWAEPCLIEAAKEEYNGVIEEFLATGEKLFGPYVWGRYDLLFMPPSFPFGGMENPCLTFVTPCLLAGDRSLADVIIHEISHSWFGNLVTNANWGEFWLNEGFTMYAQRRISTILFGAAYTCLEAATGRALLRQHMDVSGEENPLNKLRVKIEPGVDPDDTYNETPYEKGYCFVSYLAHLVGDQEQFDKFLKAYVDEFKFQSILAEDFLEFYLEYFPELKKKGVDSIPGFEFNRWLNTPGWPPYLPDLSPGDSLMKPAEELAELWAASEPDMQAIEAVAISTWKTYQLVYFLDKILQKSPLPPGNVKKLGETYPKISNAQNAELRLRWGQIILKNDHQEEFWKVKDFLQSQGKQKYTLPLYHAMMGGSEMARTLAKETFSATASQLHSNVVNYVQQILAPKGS
Kind of data set: Inhibition of rat liver aminopeptidase B using 0.2 mM […] by colorimetry.

≈ marks a conversion by molar mass, not a printed value. Bounds are passed on as bounds.

Regarding `CCCC[C@H](NC(=O)[C@@H](O)[C@H](N)Cc1ccccc1)C(=O)O`, the Rf in data set [1] is given as 0.47.

Take `CC(C)C[C@H](NC(=O)[C@@H](O)[C@H](N)CC(C)C)C(=O)O`: the Rf in data set [1] is on record as 0.49.

As for `CC(C)C[C@@H](NC(=O)[C@@H](O)[C@@H](N)Cc1ccccc1)C(=O)O`, the Rf in data set [1] is on record as 0.52. The IC50 in data set [2] was 2.7 µg/mL (≈ 8.76 µM); in data set [3], 0.162 µM.

On to `CC(C)C[C@@H](NC(=O)[C@H](O)[C@H](N)Cc1ccccc1)C(=O)O`, for which, in data set [1], the Rf was 0.37. The half-inhibitory concentration (IC50) in data set [2] was greater than 250 µg/mL; in data set [3], greater than 811 µM.

`CC(C)C[C@H](NC(=O)[C@H](O)[C@@H](N)Cc1ccccc1)C(=O)O`: in data set [1], the Rf was found to be 0.49. In addition, the IC50 in data set [2] is greater than 250 µg/mL; in data set [3] it was greater than 811 µM.

Consider `CC(C)C[C@@H](NC(=O)[C@H](O)[C@@H](N)Cc1ccccc1)C(=O)O`, for which, in data set [1], the Rf stood at 0.48. Besides, the results for the IC50 in data set [2] and in data set [3] were greater than 250 µg/mL and 438 µM, respectively.

As for `N[C@H](Cc1ccccc1)[C@H](O)C(=O)NCC(=O)O`, in data set [1], the Rf is 0.26.

For the compound `N[C@H](Cc1ccccc1)[C@H](O)C(=O)NCCCC(=O)O`, in data set [1], the Rf was 0.35. The compound also had a concentration for half-maximal inhibition (IC50) in data set [3] of 392 µM.

On to `N[C@H](Cc1ccccc1)[C@H](O)C(=O)NCCCCCC(=O)O`, for which the Rf in data set [1] was found to be 0.48. For the same compound, 357 µM corresponded to half-maximal inhibition in data set [3] (IC50).

Take `N[C@H](Cc1ccccc1)[C@H](O)C(=O)N1CCC[C@H]1C(=O)O`: in data set [1], the Rf amounted to 0.25. The same compound registered a half-maximal inhibitory concentration (IC50) in data set [3] greater than 855 µM.

Regarding `NCCCC[C@H](NC(=O)[C@@H](O)[C@H](N)Cc1ccccc1)C(=O)O`, the Rf in data set [1] amounted to 0.06. The IC50 in data set [3] is greater than 773 µM.

Regarding `N[C@H](Cc1ccccc1)[C@H](O)C(=O)N[C@@H](CCC(=O)O)C(=O)O`, in data set [1], the Rf came out at 0.27.

Regarding `NC(=O)CC[C@H](NC(=O)[C@@H](O)[C@H](N)Cc1ccccc1)C(=O)O`, in data set [1], the Rf is recorded as 0.17.

As for `N[C@H](Cc1ccccc1)[C@H](O)C(=O)N[C@@H](CO)C(=O)O`, the Rf in data set [1] is reported as 0.2. In data set [3], this compound showed an IC50 of 2.48 µM.

On to `CSCC[C@H](NC(=O)[C@@H](O)[C@H](N)Cc1ccccc1)C(=O)O`, for which the Rf in data set [1] is on record as 0.37.

Take `C[C@H](NC(=O)[C@@H](O)[C@H](N)Cc1ccccc1)C(=O)O`: the Rf in data set [1] came to 0.21. Further, it took 1.01 µM to reach half-maximal inhibition in data set [3] (IC50).

On to `CC(C)[C@H](NC(=O)[C@@H](O)[C@H](N)Cc1ccccc1)C(=O)O`, for which the Rf in data set [1] is 0.42.

On to `CCC[C@H](NC(=O)[C@@H](O)[C@H](N)Cc1ccccc1)C(=O)O`, for which the Rf in data set [1] was 0.41.

In the case of `CC[C@H](C)[C@H](NC(=O)[C@@H](O)[C@H](N)Cc1ccccc1)C(=O)O`, the Rf in data set [1] came to 0.48. Further, in data set [3], the IC50 was 0.13 µM.

As for `N[C@H](Cc1ccccc1)[C@H](O)C(=O)N[C@@H](Cc1ccccc1)C(=O)O`, the Rf in data set [1] worked out at 0.44.

On to `CC(C)CCNC(=O)[C@@H](O)[C@H](N)Cc1ccccc1.Cl`, for which the Rf in data set [1] is given as 0.65. The same compound gave an IC50 in data set [3] of 565 µM.

For `CC(C)C[C@H](NC(=O)[C@@H](O)[C@H](N)Cc1ccccc1)C(=O)NCC(=O)O`, the Rf in data set [1] is 0.34. In addition, in data set [3], inhibition was half-maximal at 93 µM (IC50).

Turning to `CC(C)C[C@H](NC(=O)[C@@H](O)CN)C(=O)O`, the Rf in data set [1] is 0.13. Besides, the IC50 in data set [3] is 641 µM.

On to `CC(C)C[C@H](NC(=O)[C@H](O)CN)C(=O)O`, for which, in data set [1], the Rf is reported as 0.13. This compound gave an IC50 in data set [3] greater than 1150 µM.

As to `CC(C)C[C@H](NC(=O)[C@@H](O)[C@H](N)CC1CCCCC1)C(=O)O`, the Rf in data set [1] stood at 0.47. For the same compound, the IC50 in data set [3] was 3.5 µM.

For `CC(C)C[C@H](NC(=O)[C@@H](O)[C@H](N)Cc1ccc([N+](=O)[O-])cc1)C(=O)O`, the Rf in data set [1] stood at 0.58.

On to `CC(C)C[C@H](NC(=O)[C@@H](O)[C@H](N)Cc1ccc(N)cc1)C(=O)O`, for which, in data set [1], the Rf is listed as 0.25.

Turning to `CC(C)C[C@H](NC(=O)[C@H](O)[C@@H](C)N)C(=O)O`, the Rf in data set [1] amounted to 0.23.

In the case of `CC(C)C[C@H](NC(=O)[C@@H](O)[C@@H](C)N)C(=O)O`, the Rf in data set [1] worked out at 0.27.

On to `CC(C)C[C@H](NC(=O)[C@H](O)[C@H](N)CC(C)C)C(=O)O`, for which the Rf in data set [1] was 0.43.

For `CC(C)C[C@H](NC(=O)[C@H](O)[C@H](N)c1ccccc1)C(=O)O`, the Rf in data set [1] was found to be 0.38.

Take `CC(C)C[C@H](NC(=O)[C@@H](O)[C@H](N)c1ccccc1)C(=O)O`: the Rf in data set [1] came out at 0.41.

Regarding `CC(C)C[C@H](NC(=O)[C@H](O)[C@H](N)Cc1ccc(Cl)cc1)C(=O)O`, the Rf in data set [1] worked out at 0.42.

As for `CC(C)C[C@H](NC(=O)[C@@H](O)[C@H](N)Cc1ccc(Cl)cc1)C(=O)O`, in data set [1], the Rf is 0.52.

On to `Cc1ccc(C[C@@H](N)[C@@H](O)C(=O)N[C@@H](CC(C)C)C(=O)O)cc1`, for which the Rf in data set [1] came to 0.53.

Consider `Cc1ccc(C[C@@H](N)[C@H](O)C(=O)N[C@@H](CC(C)C)C(=O)O)cc1`, for which, in data set [1], the Rf is recorded as 0.58.

Regarding `CC(C)C[C@@H](NC(=O)[C@@H](O)[C@H](N)Cc1ccccc1)C(=O)O`, the Rf in data set [1] came out at 0.49. Also, in data set [2], the concentration for half-maximal inhibition (IC50) was found to be 3.4 µg/mL (≈ 11 µM).

As for `N[C@H](Cc1ccccc1)[C@H](O)C(=O)NCCC(=O)O`, the Rf in data set [1] is 0.34. Moreover, in data set [3], it took 141 µM to reach half-maximal inhibition (IC50).

For `CC(C)C[C@H](NC(=O)[C@@H](O)[C@@H](N)Cc1ccccc1)C(=O)O`, the Rf in data set [1] was determined as 0.37. Besides, the IC50 in data set [2] amounted to 0.07 µg/mL (≈ 0.227 µM).

In the case of `CC(C)C[C@H](NC(=O)[C@H](O)[C@H](N)Cc1ccccc1)C(=O)O`, the Rf in data set [1] is 0.52. The half-maximal inhibitory concentration (IC50) in data set [2] is 7.5 µg/mL (≈ 24.3 µM); in data set [3] it was 324 µM.

For `CCCCCCC(NC(=O)[C@@H](O)[C@H](N)Cc1ccccc1)C(=O)O` (mixture of isomers), the Rf in data set [1] came out at 0.58.

Consider `CC(C)C[C@H](NC(=O)C(O)C(N)Cc1ccccc1Cl)C(=O)O` (mixture of isomers), for which the Rf in data set [1] was found to be 0.46.

For the compound `CC(C)C[C@H](NC(=O)[C@@H](O)[C@H](N)Cc1ccccc1)C(=O)O` [UBENIMEX], the Rf in data set [1] turned out to be 0.48. Moreover, the half-inhibitory concentration (IC50) was 0.01 µg/mL (≈ 0.0324 µM) in data set [2] and 0.162 µM in data set [3].
